Patent US20110059986A1, “INTERMITTENT DOSING REGIMEN FOR OVERWEIGHT AND OBESE SUBJECTS” (priority 2004, published 2011)

Legend:
Format in all cases: in vivo
obese Beagle dogs [1] = assay: Efficacy study with continuous administration of mitratapide during 8 weeks; details: oral
Protocol: FIG. 1 is a graph displaying the results of an efficacy study wherein the apoB secretion/MTP inhibitor mitratapide was administered during 8 weeks to a group of obese Beagle dogs. The four curves illustrate the effect on body weight by plotting the ‘(%) body weight relative to the weight at the start’ when mitratapide was administered with a dosage of 0 mg per kg body weight (A curve), 0.16 mg per kg body weight (B curve), 0.31 mg per kg body weight (C curve) and 0.63 mg per kg body weight in function of the duration of the study.
The efficacy of the apoB secretion/MTP inhibitor mitratapide for the reduction of body weight was studied in a blind, randomised study with 4 parallel groups of 6 dogs each. Three groups were treated orally with three different doses of mitratapide and one group was treated orally with the vehicle and served as a placebo group. The vehicle solution contained the same ingredients as the test formulations with omission of the test substance mitratapide.
The treatment groups were:
placebo group A treated orally with vehicle
group B treated orally with 0.16 mg mitratapide per kg body weight
group C treated orally with 0.31 mg mitratapide per kg body weight
group D treated orally with 0.63 mg mitratapide per kg body weight
The test subjects were healthy, male Beagle dogs with a body weight of 13.6 to 22.6 kg at the start of the experiment and between 1 and 8 years old. All dogs were treated orally using a 5 ml syringe, once daily, in the morning for a period of 8 weeks (56 days) depending on their body weight. Body weight was measured once weekly on days 0, 7, 14, 21, . . . up to day 56. The volume of test formulation was 1 ml per 4 kg body weight. The test formulation was an aqueous 10% hydroxypropyl-β-cyclodextrin solution containing no mitratapide, 0.63 mg mitratapide per ml, 1.25 mg mitratapide per ml or 2.5 mg mitratapide per ml. Each test subject had free access (in volume and time) to commercial dog feed (Bento Kronen Professional Power) and water during the 8 week study. […]

obese Beagle dogs [2] = assay: Comparison of 3 w-2 w-3 w and 4 w-4 w-4 w dosing regimen; details: 0.63 mg/kg oral gavage once daily
Protocol: Thirty two healthy obese Beagle dogs of both sexes were included in a study of two different intermittent treatment regimens: a 3 w-2 w-3 w regimen and a 4 w-4 w-4 w regimen. At the start of the study, the dogs weighed between 12.5 and 26 kg which was considered as being more than 20% higher than the ideal body weight. The study was conducted in four groups, two treated groups containing 10 obese Beagle dogs and one placebo group containing 12 obese Beagle dogs. This placebo group of 12 dogs was subdivided in two sets of 6 dogs. One placebo group followed the 3 w-2 w-3 w regimen and the other placebo group the 4 w-4 w-4 w regimen.
The test compound mitratapide was provided as a polyethylene glycol 400 (PEG 400) solution comprising 5 mg mitratapide per ml. The test solution was administered once daily in the morning by oral gavage. The volume of test formulations was 0.125 ml per kg body weight so that mitratapide was administered with a dosage of 0.63 mg/kg body weight. The body weight was measured weekly during the treatment periods to adjust the amount of test formulation. The placebo groups received water as the test formulation. Each test subject had free access (in volume and time) to commercial dog feed (Bento Kronen premium Regular dog pellets) during the first administration period. The first administration period was followed by a period during which administration of mitratapide was withheld. At the same time, the dogs were put on a maintenance diet having a caloric content equal to their caloric expenditure. […] At the start of the second administration period, the dogs were again administered a mitratapide solution with a dosage of 0.63 mg/kg body weight. The dogs were kept on the same maintenance diet as during the previous period. All dogs had free access to drinking water throughout the entire study. Body weight of each test animal was measured weekly on days 0, 7, 14, 21 and so on till day 84. The effect on body weight for each of the four dosage studies is plotted in FIG. 3. […] The reduction of body weight of the two placebo groups was less than 2% after 84 days.

obese Beagle dogs [3] = assay: 4 w-4 w-4 w intermittent dosing regimen study; details: 4 w-4 w-4 w regimen, 0.63 mg/kg oral once daily
Protocol: Mitratapide was administered for a first period of four weeks at a dosage of 0.63 mg/kg body weight, withheld for four weeks and again administered for four weeks at a dosage of 0.63 mg/kg body weight. At day 29, the feeding was restricted from ad libitum access to food, to a maintenance diet having a caloric content equal to the caloric expenditure of the test subject.
The effect of a 4 w-4 w-4 w intermittent dosing regimen on 15 obese Beagle dogs, with a body weight of 16% or more above optimal body weight, was studied. The dogs were treated with mitratapide oral solution at a daily single dose of 0.63 mg/kg body weight for two periods of 28 consecutive days (4 weeks) with an intermediate period of 28 consecutive days without treatment.
The test formulation comprising mitratapide was an aqueous 10% hydroxypropyl-β-cyclodextrin solution containing 2.5 mg mitratapide per ml and was administered once daily in an amount of 1 ml per 4 kg body weight. The daily dose was mixed into a small portion of feed and presented to the dog. The rest of the feed was only provided after this portion was consumed. […] The test solution comprising mitratapide was no longer administered and the body weight of the animals was further monitored during the follow-up procedure ending on day 112. […] Body weight of each test animal was measured on days 0, 14, 28, 42, 56, 84 and 112. […]

CCC(C)n1ncn(-c2ccc(N3CCN(c4ccc(OCC5COC(CSc6nncn6C)(c6ccc(Cl)cc6)O5)cc4)CC3)cc2)c1=O (stereo not drawn) [mitratapide, (−)-[2S-[2α, 4α(S*)]]-4-[4-[4-[4-[[2-(4-chlorophenyl)-2-[[(4-methyl-4H-1,2,4-triazol-3-yl)thio]methyl]-1,3-dioxolan-4-yl]methoxy]-phenyl]-1-piperazinyl]phenyl]-2,4-dihydro-2-(1-methylpropyl)-3H-1,2,4-triazol-3-one]
effect on body weight at 0.63 mg/kg compared with lower dose (obese Beagle dogs [1]; 0.63 mg/kg once daily for 8 weeks, free access to feed): more effective in reducing body weight
course of body weight reduction (levelling off) (obese Beagle dogs [1]; 0.63 mg/kg once daily, continuous for 8 weeks (curve D)): started to level off after three weeks
daily dosage necessary to decrease body weight (obese Beagle dogs [1]; once daily for 8 weeks (56 days), free access to feed, doses 0.16, 0.31, 0.63 mg/kg tested): at least 0.31 mg/kg
course of body weight reduction (levelling off) (obese Beagle dogs [2]; 3 w-2 w-3 w and 4 w-4 w-4 w regimens): no body weight reduction levelling off effect was observed
mean effect on body weight reduction (obese Beagle dogs [2]; 3 w-2 w-3 w regimen, day 56): 11%
mean effect on body weight reduction (obese Beagle dogs [2]; 4 w-4 w-4 w regimen, day 84): 13%
mean reduction of body weight (obese Beagle dogs [3]; maintenance diet from the second period, after 84 days): 9%
course of body weight reduction (levelling off) (obese Beagle dogs [3]; two treatment periods): no body weight reduction levelling off effect was observed
